In publication PMC9414584, “Synthesis and Biological Evaluation of Indole-2-Carboxamides with Potent Apoptotic Antiproliferative Activity as EGFR/CDK2 Dual Inhibitors” (Pharmaceuticals, 2022):
Where “and” joins values, the source holds several entries; their conditions need not be identical. Equal entries are not always repeated. Blank lines part the entries; values can stand above or below the compound they belong to.

Columns and labels:
[1] = Cell viability assay (MTT) on MCF-10A cells; format: cell-based; conditions: human, MCF-10A mammary gland epithelial cells
Procedure: (§1) The MCF-10A (human mammary gland epithelial) cell line was used in the cell viability experiment. Compounds 5a–k, 6a–c, and 7 were incubated with MCF-10A cells for 4 days at 50 µM concentration, and the viability of cells was determined using the 3-(4,5-dimethylthiazol-2-yl)-2,5-diphenyltetrazolium bromide (MTT) test.. All compounds had no cytotoxic effects, and the vitality of the cells was more than 83% for most of the compounds examined.
as §1, with “test.” for “test.. All compounds had no cytotoxic effects, and the vitality of the cells was more than 83% for most of the compounds examined.”

[2] = system: epithelial cancer cell line (A-549); test: Antiproliferative MTT assay, A-549; format: cell-based; conditions: Homo sapiens, A549; A-549, MTT; read-out: Antiproliferative Activity IC50 ± SEM A-549
Source text: (§2) Using the MTT assay with doxorubicin as the reference drug, the antiproliferative activities of 5a–k, 6a–c, and 7 against four human cancer cell lines, including pancreas cancer cell line (Panc-1), breast cancer cell line (MCF-7), colon cancer cell line (HT-29), and epithelial cancer cell line (A-549) were investigated.

[3] = system: breast cancer cell line (MCF-7); test: Antiproliferative MTT assay, MCF-7; format: cell-based; conditions: Homo sapiens, MCF7; MCF-7, MTT; read-out: Antiproliferative Activity IC50 ± SEM MCF-7
Source text: as §2

[4] = system: pancreas cancer cell line (Panc-1); test: Antiproliferative MTT assay, Panc-1; format: cell-based; conditions: Homo sapiens; Panc-1, MTT; read-out: Antiproliferative Activity IC50 ± SEM Panc-1
Source text: as §2

[5] = system: colon cancer cell line (HT-29); test: Antiproliferative MTT assay, HT-29; format: cell-based; conditions: Homo sapiens; HT-29, MTT; read-out: Antiproliferative Activity IC50 ± SEM HT-29
Source text: as §2

[6] = system: four human cancer cell lines (Panc-1, MCF-7, HT-29, A-549); test: Antiproliferative MTT assay, average of four cancer cell lines (mean GI50); format: cell-based; conditions: Homo sapiens; average of A-549, MCF-7, Panc-1, HT-29; read-out: Antiproliferative Activity IC50 Average (GI50 against the four cell lines)
[7] = biological target: EGFR (Homo sapiens, UniProt P00533); test: EGFR-TK inhibitory assay; format: biochemical; conditions: read-out: EGFR Inhibition IC50 ± SEM
Chain of EGFR (P00533 25-1210): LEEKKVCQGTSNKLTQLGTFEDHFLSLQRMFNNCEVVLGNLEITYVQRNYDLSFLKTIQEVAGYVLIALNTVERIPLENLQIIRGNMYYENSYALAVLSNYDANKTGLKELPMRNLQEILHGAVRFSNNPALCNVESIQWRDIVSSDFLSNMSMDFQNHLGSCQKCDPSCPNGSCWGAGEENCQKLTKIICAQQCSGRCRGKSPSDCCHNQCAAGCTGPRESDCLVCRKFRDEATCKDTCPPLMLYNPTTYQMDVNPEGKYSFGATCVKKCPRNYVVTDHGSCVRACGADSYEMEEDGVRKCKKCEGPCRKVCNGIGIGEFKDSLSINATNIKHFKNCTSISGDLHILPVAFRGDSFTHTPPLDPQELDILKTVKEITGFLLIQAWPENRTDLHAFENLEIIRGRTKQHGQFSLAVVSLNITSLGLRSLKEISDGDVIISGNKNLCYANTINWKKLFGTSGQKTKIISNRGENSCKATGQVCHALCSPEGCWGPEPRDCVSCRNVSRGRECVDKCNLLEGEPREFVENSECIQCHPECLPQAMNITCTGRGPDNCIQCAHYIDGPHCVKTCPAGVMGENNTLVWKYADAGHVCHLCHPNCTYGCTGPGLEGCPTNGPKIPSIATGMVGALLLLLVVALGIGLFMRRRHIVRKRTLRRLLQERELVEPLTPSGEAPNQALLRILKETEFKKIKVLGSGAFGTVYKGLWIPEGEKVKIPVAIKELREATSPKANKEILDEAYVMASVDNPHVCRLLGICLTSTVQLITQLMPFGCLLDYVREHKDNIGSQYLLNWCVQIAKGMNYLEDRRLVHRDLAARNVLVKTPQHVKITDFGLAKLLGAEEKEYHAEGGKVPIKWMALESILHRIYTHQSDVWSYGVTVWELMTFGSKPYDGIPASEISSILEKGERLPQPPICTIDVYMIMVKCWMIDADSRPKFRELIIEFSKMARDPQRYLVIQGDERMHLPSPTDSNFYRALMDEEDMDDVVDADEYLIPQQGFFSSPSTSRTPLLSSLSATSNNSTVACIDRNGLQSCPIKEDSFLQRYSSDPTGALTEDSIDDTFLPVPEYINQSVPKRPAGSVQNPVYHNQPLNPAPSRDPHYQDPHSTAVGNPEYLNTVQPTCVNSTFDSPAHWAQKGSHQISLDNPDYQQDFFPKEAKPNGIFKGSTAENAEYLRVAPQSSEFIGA

[8] = system: Caspase-8 in MCF-7 breast cancer cell line; test: Caspase-8 level in MCF-7 cells; format: cell-based, human; conditions: for Caspase-8 Fold Change: vs control cells
[9] = system: Caspase-9 in MCF-7 breast cancer cell line; test: Caspase-9 level in MCF-7 cells; format: cell-based, human; conditions: for Caspase-9 Fold Change: vs control cells
[10] = system: Cytochrome C in MCF-7 human breast cancer cell line; test: Cytochrome C assay in MCF-7 cells; format: cell-based; conditions: for Cytochrome C Fold Change: vs untreated control cells
Procedure: The quantity of cytochrome C within the cell is important for activating caspases and commencing the intrinsic apoptosis process. […] The findings add to the evidence that apoptosis can be attributed to Cytochrome C overexpression and activation of the intrinsic apoptotic pathway triggered by the investigated compounds.
Indole-2-carboxamide derivatives 5d, 5e, and 5h were evaluated as Cytochrome C activators in the MCF-7 human breast cancer cell line.

[11] = system: Bax in breast cancer cell line (MCF-7); test: Bax level assay in MCF-7 cells; format: cell-based, human; conditions: for Bax Fold Change: increase over control untreated cells
[12] = system: Bcl-2 in breast cancer cell line (MCF-7); test: Bcl-2 level assay in MCF-7 cells; format: cell-based, human; conditions: for Bcl-2 Fold Change: reduced level vs control
[13] = system: p53 in MCF-7; test: p53 transcription/level in MCF-7; format: cell-based, human; conditions: MCF-7 cells
Source text: p53 is a unique protein that participates in several physiological processes such as cell metabolism, stem cell maintenance, and cell adhesion. Because p53 is frequently inactivated in cancer cells, the cells are unable to undergo apoptosis. Similarly, activating, or stabilizing p53 aids cancer cells in normalizing p53-controlled physiological processes and increasing apoptotic activity.

[14] = biological target: CDK2 enzyme (Homo sapiens, UniProt P24941); test: CDK2 inhibitory assay
[15] = system: Caspase-3 in MCF-7 breast cancer cell line; test: Caspase-3 level in MCF-7 cells; conditions: for Caspase-3 Fold Change: vs control untreated cells
[16] = system: A549 lung, MCF-7 breast, Panc-1 Pancreatic, and HT-29 colon cancer cell lines; parameters: method as in PMID 31128433; conditions: A549, MCF-7, Panc-1, HT-29; read-out: GI50 against the four examined cell lines (mean GI50); cited from earlier work

IC50 [2]: 0.95 ± 0.05 µM
IC50 [3]: 0.8 ± 0.05 µM
IC50 [4]: 1 ± 0.2 µM
IC50 [5]: 1.1 ± 0.1 µM
IC50 [6]: 0.95 µM
IC50 [7]: 0.093 ± 0.008 µM
IC50 [14]: 0.013 ± 0.001 µM
fold more active than dinaciclib on CDK2 ([14]; vs reference dinaciclib): 1.5 fold
SMILES: Cc1c(C(=O)NCCc2ccc(N3CCCC3C)cc2)[nH]c2ccc(Cl)cc12 (stereo not shown) [Compound 5e, 5-Chloro-3-methyl-N-(4-(2-methylpyrrolidin-1-yl)phenethyl)-1H-indole-2-carboxamide]
viability at 4 days, 50 µM [1]: 93%
Caspase-8 Conc [8]: 2.17 ng/mL
Caspase-8 Fold Change [8]: 10.90 fold
Caspase-9 Conc [9]: 17.25 ng/mL
Caspase-9 Fold Change [9]: 18.15 fold
Cytochrome C Conc [10]: 0.80 ng/mL
Cytochrome C Fold Change [10]: 16 fold
Bax Conc [11]: 296.50 pg/mL and 296.50 ± 2.50 pg/mL
Bax Fold Change [11]: 36 fold
Bcl-2 Conc [12]: 0.87 ng/mL
Bcl-2 Fold Change [12]: 5.90 fold
p53 Conc [13]: 1435 pg/mL and 1435 ± 15 pg/mL
Caspase-3 Conc [15]: 635.50 ± 5.50 pg/mL
Caspase-3 Fold Change [15]: 9.70 fold

SMILES: COc1cccc2c1C(=O)c1c(O)c3c(c(O)c1C2=O)C[C@@](O)(C(=O)CO)C[C@@H]3O[C@H]1C[C@H](N)[C@H](O)[C@H](C)O1 [Doxorubicin, reference compound]
IC50 [2]: 1.2 ± 0.2 µM
IC50 [3]: 0.9 ± 0.1 µM
IC50 [4]: 1.4 ± 0.2 µM
IC50 [5]: 1 ± 0.1 µM
IC50 [6]: 1.1 µM
Caspase-8 Conc [8]: 1.80 ng/mL
Caspase-8 Fold Change [8]: 9.00 fold
Caspase-9 Conc [9]: 16.25 ng/mL
Caspase-9 Fold Change [9]: 17.00 fold
Cytochrome C Conc [10]: 0.60 ng/mL
Cytochrome C Fold Change [10]: 12 fold
Bax Conc [11]: 275.80 ± 2.50 pg/mL
Bax Fold Change [11]: 33 fold
Bcl-2 Conc [12]: 0.98 ng/mL
Bcl-2 Fold Change [12]: 5.20 fold
p53 Conc [13]: 1265 ± 10 pg/mL
p53 Fold Change ([13]; vs control): 25 fold
p53 Conc ([13]; listed as doxorubicin): 1265 pg/mL
GI50 [16]: 1.13 µM
Caspase-3 Conc [15]: 503.50 ± 4.50 pg/mL
Caspase-3 Fold Change [15]: 7.70 fold
